Test results: US12350270B2, “Antimalarial agents” (Merck Sharp & Dohme LLC, priority 2019, dated 2025)

System: parasites (ring stage, in human red blood cell culture)
Test: Parasite LDH growth assay (antiparasite potency, Parasite Assay)
Assay type: cell-based, Plasmodium falciparum
Conditions: 0.7% rings, 2% haematocrit, 72 hours at 37° C., LDH readout of parasite growth
Summary of the method: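 Growth was read by an LDH assay after a freeze–thaw cycle (−80 °C overnight, 4 h thaw at RT). Before that, parasites grew with compound for 72 h at 37 °C under gassed, humidified conditions. The input was a ring-stage culture adjusted to 0.7% parasitemia and 2% haematocrit in serum (5%)/albumax (0.5%)-supplemented RPMI-Hepes.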
Work on “(4R)-4-(4,4-diethyl-2-imino-6- oxo-hexahydropyrimidin-1- yl)-N-[2-(hydroxymethyl)- methyl-3H-benzofuran-3- yl]chromane-6-carboxamide [Example 176B]” yielded an EC50 of 7.8 nM.

Same assay, conditions: Plasmodium falciparum, Erythrocyte, 72 h, 0.7% rings, 2% haematocrit, 72 hours at 37° C., LDH readout of parasite growth
Compound `CC[C@]1(C)CC(=O)N([C@@H]2C[C@@H](COC(F)F)Oc3ccc(C(=O)N[C@@H]4c5ccccc5OC[C@@]4(C)O)cc32)C(=N)N1` [Example 300, (2S,4R)-2-(difluoromethoxymethyl)-4-[(4R)-4-ethyl-2-imino-4-methyl-6-oxo-hexahydropyrimidin-1-yl]-N-[(3S,4R)-3-hydroxy-3-methyl-chroman-4-yl]chromane-6-carboxamide] has an EC50 of 3.8 nM. With `CCC1(CC)CC(=O)N([C@H]2c3cc(C(=O)N[C@@H]4c5cc(C#N)ccc5OC[C@@]4(C)O)ccc3OC[C@H]2COC)C(=N)N1` [Example 301, (3R,4R)-N-[(3S,4R)-6-cyano-3-hydroxy-3-methyl-chroman-4-yl]-4-(4,4-diethyl-2-imino-6-oxo-hexahydropyrimidin-1-yl)-3-(methoxymethyl)chromane-6-carboxamide] the EC50 was 1.8 nM. With `CCC1(CC)CC(=O)N(C2CC(C(=O)N(C)C)Oc3ccc(C(=O)N[C@H]4CC(C)(C)Oc5ccccc54)cc32)C(=N)N1` (stereo partly drawn) [Example 302, 4-(4,4-diethyl-2-imino-6-oxo-hexahydropyrimidin-1-yl)-N6-[(4S)-2,2-dimethylchroman-4-yl]-N2,N2-dimethyl-chromane-2,6-dicarboxamide] the EC50 was 1.7 nM. For `CCC1(CC)CC(=O)N(C2CC(C(=O)N(C)C)Oc3ccc(C(=O)N[C@@H]4c5ccccc5OC[C@@]4(C)O)cc32)C(=N)N1` (stereo partly drawn) [Example 303, 4-(4,4-diethyl-2-imino-6-oxo-hexahydropyrimidin-1-yl)-N6-[(3S,4R)-3-hydroxy-3-methyl-chroman-4-yl]-N2,N2-dimethyl-chromane-2,6-dicarboxamide], the EC50 was 50.8 nM. For `CCC1(CC)CC(=O)N([C@H]2c3cc(C(=O)N[C@H]4CC(C)(C)Oc5ccccc54)ccc3OC2(COC)COC)C(=N)N1` [Example 304, (3S)-3-(4,4-diethyl-2-imino-6-oxo-hexahydropyrimidin-1-yl)-N-[(4S)-2,2-dimethylchroman-4-yl]-2,2-bis(methoxymethyl)-3H-benzofuran-5-carboxamide], the EC50 was 5.6 nM. `CCC1(CC)CC(=O)N(C2c3cc(C(=O)N[C@@H]4c5ccccc5OC[C@@]4(C)O)ccc3OC2(COC)COC)C(=N)N1` (stereo partly drawn) [Example 305, 3-(4,4-diethyl-2-imino-6-oxo-hexahydropyrimidin-l-yl)-N-[(3S,4R)-3-hydroxy-3-methyl-chroman-4-yl]-2,2-bis(methoxymethyl)-3H-benzofuran-5-carboxamide] showed an EC50 of 75.8 nM. `CCC1(CC)CC(=O)N(C2CC(C(=O)N(C)C)Oc3ccc(C(=O)N[C@@H]4c5ccccc5OC(C)(C)[C@H]4O)cc32)C(=N)N1` (stereo partly drawn) [Example 306, 4-(4,4-diethyl-2-imino-6-oxo-hexahydropyrimidin-1-yl)-N6-[(3S,4R)-3-hydroxy-2,2-dimethyl-chroman-4-yl]-N2,N2-dimethyl-chromane-2,6-dicarboxamide] showed an EC50 of 27.4 nM. In the case of `CCC1(CC)CC(=O)N([C@H]2c3cc(C(=O)N[C@@H]4c5ccccc5OC(C)(C)[C@H]4O)ccc3OC2(COC)COC)C(=N)N1` [Example 307], the EC50 is reported as 3.2 nM. `CCC1(CC)CC(=O)N([C@@H]2C[C@@H](CCCCCCN)Oc3ccc(C(=O)N[C@H]4CC(C)(C)Oc5ccccc54)cc32)C(=N)N1` [Example 308, (2R,4R)-2-(6-aminohexyl)-4-(4,4-diethyl-2-imino-6-oxo-hexahydropyrimidin-1-yl)-N-[(4S)-2,2-dimethylchroman-4-yl]chromane-6-carboxamide] showed an EC50 of 40.5 nM. `CCC1(CC)CC(=O)N([C@@H]2C[C@@H](CCCCCCNC(C)=O)Oc3ccc(C(=O)N[C@H]4CC(C)(C)Oc5ccccc54)cc32)C(=N)N1` [Example 309, (2R,4R)-2-(6-acetamidohexyl)-4-(4,4-diethyl-2-imino-6-oxo-hexahydropyrimidin-l-yl)-N-[(4S)-2,2-dimethylchroman-4-yl]chromane-6-carboxamide] showed an EC50 of 3.2 nM. `CCC1(CC)CC(=O)N([C@@H]2C[C@@H](COCCOCCOCCN)Oc3ccc(C(=O)N[C@H]4CC(C)(C)Oc5ccccc54)cc32)C(=N)N1` [Example 310, (2S,4R)-2-[2-[2-(2-aminoethoxy)ethoxy]ethoxymethyl]-4-(4,4-diethyl-2-imino-6-oxo-hexahydropyrimidin-1-yl)-N-[(4S)-2,2-dimethylchroman-4-yl]chromane-6-carboxamide] gave an EC50 of 211 nM. `CCC1(CC)CC(=O)N([C@@H]2C[C@@H](CCCCCCNC(=O)OC(C)(C)C)Oc3ccc(C(=O)N[C@H]4CC(C)(C)Oc5ccccc54)cc32)C(=N)N1` [Example 311, tert-butyl N-[6-[(2R,4R)-4-(4,4-diethyl-2-imino-6-oxo-hexahydropyrimidin-1-yl)-6-[[(4S)-2,2-dimethylchroman-4-yl]carbamoyl]chroman-2-yl]hexyl]carbamate] showed an EC50 of 2.4 nM. Work on `CCC1(CC)CC(=O)N([C@@H]2C[C@@H](COCCOCCOCCNC(C)=O)Oc3ccc(C(=O)N[C@H]4CC(C)(C)Oc5ccccc54)cc32)C(=N)N1` [Example 312, (2S,4R)-2-[2-[2-(2-acetamidoethoxy)ethoxy]ethoxymethyl] -4-(4,4-diethyl-2-imino-6-oxo-hexahydropyrimidin-1-yl)-N-[(4S)-2,2-dimethylchroman-4-yl]chromane-6-carboxamide] yielded an EC50 of 53.9 nM. Work on `CCC1(CC)CC(=O)N([C@H]2C[C@H](COCCOCCOCCNC(=O)OC(C)(C)C)Oc3ccc(C(=O)N[C@H]4CC(C)(C)Oc5ccccc54)cc32)C(=N)N1` [Example 313, tert-butyl N-[2-[2-[2-[[(2R,4S)-4-(4,4-diethyl-2-imino-6-oxo-hexahydropyrimidin-l-yl)-6-[[(4S)-2,2-dimethylchroman-4-yl]carbamoyl]chroman-2-yl]methoxy]ethoxy]ethoxy]ethyl]carbamate] yielded an EC50 of 260 nM. For `CCC1(CC)CC(=O)N([C@@H]2C[C@@H](COCCOCCOCCNC(=O)OC(C)(C)C)Oc3ccc(C(=O)N[C@H]4CC(C)(C)Oc5ccccc54)cc32)C(=N)N1` [Example 314, tert-butyl N-[2-[2-[2-[[(2S,4R)-4-(4,4-diethyl-2-imino-6-oxo-hexahydropyrimidin-l-yl)-6-[[(4S)-2,2-dimethylchroman-4-yl]carbamoyl]chroman-2-yl]methoxy]ethoxy]ethoxy]ethyl]carbamate], the EC50 was 7.3 nM.

System: PMIX (plasmepsin IX)
Test: Inhibition of PMIX function in parasite extracts: cleavage of PMIX substrates RAP1 and ASP, and PMIX autoprocessing
Assay type: cell-based, P. falciparum
Conditions: treated parasites
Procedure: To confirm that Example 1 was a dual inhibitor of PMX and PMIX function, the ability of this compound to inhibit cleavage of the known PMIX substrate Rhoptry Associated Protein 1 (RAP1) in parasite extracts was tested (Pino et al., 2017). RAP1 is a merozoite rhoptry protein that is localized to the parasitophorous vacuole after invasion and processed by both PMIX and SUB1 (Pino et al., 2017). […] RAP1 was not released into the parasite supernatant because it was deposited in the parasitophorous vacuole during the invasion process (Baldi, D., Andrews, K., Waller, R., Roos, D., Howard, R., Crabb, B. and Cowman, A. (2000)). RAP1 controls rhoptry targeting of RAP2 in the malaria parasite Plasmodium falciparum. Embo Journal 19, 2435-2443.
The development of Example 1 as a PMIX/PMX dual inhibitor of the P. falciparum parasite has allowed for the analysis of the function of these aspartic acid proteases. To do this, PMIX was processed to a 55 kDa (p55) protein and this was not inhibited by E64.
With `CC(C)C[C@H](NC(=O)[C@H]1O[C@@H]1C(=O)O)C(=O)NCCCCN=C(N)N` [Example E64] the “ASP cleavage (p87 to p47) by PMIX” value was “processed into a 47 kDa polypeptide (p47)” and the “PMIX processing to 55 kDa (p55) protein (autocatalytic cleavage)” value was “not inhibited”.

Same assay, conditions: treated parasites / merozoites
In the case of `CC(C)C[C@H](NC(=O)[C@H]1O[C@@H]1C(=O)O)C(=O)NCCCCN=C(N)N` [Example E64], the “RAP1 processing (p87 to p82 and p69) by PMIX and SUB1” value is reported as “processed normally by PMIX and SUB1”.

Biological target: T1, PMX (plasmepsin X) (Plasmodium falciparum, UniProt Q8IAS0)
T1 construct: endogenous in cells
T1 sequence (Q8IAS0 222-573): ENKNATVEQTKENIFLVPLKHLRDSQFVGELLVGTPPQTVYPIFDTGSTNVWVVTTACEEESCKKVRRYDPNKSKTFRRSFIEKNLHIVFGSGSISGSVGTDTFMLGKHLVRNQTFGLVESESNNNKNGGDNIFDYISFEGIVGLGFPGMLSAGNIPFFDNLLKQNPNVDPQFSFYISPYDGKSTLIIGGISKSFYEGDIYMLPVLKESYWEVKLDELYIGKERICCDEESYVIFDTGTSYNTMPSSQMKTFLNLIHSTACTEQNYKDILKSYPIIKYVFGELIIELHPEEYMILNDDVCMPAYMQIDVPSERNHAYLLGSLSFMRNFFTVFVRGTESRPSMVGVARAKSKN
Test: not given
Conditions: negative control, literature (Salmon et al. 2001); cited from earlier work
For `CC(C)C[C@H](NC(=O)[C@H]1O[C@@H]1C(=O)O)C(=O)NCCCCN=C(N)N` [Example E64], the SERAS processing is given as “does not affect SERAS processing”.
